This note sets out measurements from patent US20190274937A1, “MICROBIOME-SAFE COSMETIC CLEANING COMPOSITIONS” (Yun NV, priority 2016, published 2019).

The nature of one assay: Spread plating. Type of assay: cell-based. The following applies: surfactants of negative control P3. As for the experimental part:
The negative control (P3) has no growth after incubation in MRS. It contains the anionic Sodium Laureth sulphate (14% final) and cocamidopropyl betaine, some of the most commonly used surfactants in present-day soaps.

For another assay, the system named is lactobacillus. The experiment in a line: More detailed screening of the products for ingredients responsible for growth retardation (data not shown). In kind it is cell-based. The source says:
A more detailed screening of the products (data not shown) led to a few common ingredients found in most shower cosmetics that can be held responsible for the growth retardation in FIG. 1.0. […] As strong and fast working preservatives; phenoxyethanol, parabens, bronopol, sulphites/sulphates, benzylalcohol and others were identified. Most allergens in perfume can also be identified as being harmful for bacteria.

Take Sodium laureth sulphate: the bactericidal effect entry in the assay “Spread plating” is “bactericidal effect”. In addition, in the assay on lactobacillus, the “effect on bacteria / the present lactobacillus” value is recorded as “very strong bactericidal effect”.

Take cocamidopropyl betaine: the bactericidal effect entry in the assay “Spread plating” is given as “bactericidal effect”. For the same substance, the “effect on bacteria / the present lactobacillus” value in the assay with lactobacillus is given as “big negative influence”.
